Results on eight compounds are retold here after patent US12404262B2 (priority 2021, dated 2025).

For the data set the following is noted: 1.0% DMSO, 24-hour incubation at ambient temperature, maximum theoretical 100 μM; for pH 2 solubility: 0.1N HCl, first value of the cell; for pH 7 solubility: 1×PBS buffer (pH 7.4), second value of the cell.

Molecules are shown by their SMILES.

Take `CC(C)(C#Cc1ccc(-c2ccc(Cl)c3c(N(C(=O)CCN4CCOCC4)S(C)(=O)=O)nn(CC(F)(F)F)c23)c([C@H](Cc2cc(F)cc(F)c2)NC(=O)Cn2nc(C(F)(F)F)c3c2C(F)(F)[C@@H]2C[C@H]32)n1)S(C)(=O)=O` [Compound 5, N-(4-chloro-7-(2-((S)-1-(2-((3bS,4aR)-5,5-difluoro-3-(trifluoromethyl)-3b,4,4a,5-tetrahydro-1H-cyclopropa [3,4]cyclopenta [1,2-c]pyrazol-1-yl)acetamido)-2-(3,5-difluorophenyl)ethyl)-6-(3-methyl-3-(methylsulfonyl)but-1-yn-1-yl)pyridin-3-yl)-1-(2,2,2-trifluoroethyl)-1H-indazol-3-yl)-N-(methylsulfonyl)-3-morpholinopropanamide]: the “pH 2 solubility” value stood at 39 μM and the “pH 7 solubility” value was determined as 9 μM.
For `CC(C)(C#Cc1ccc(-c2ccc(Cl)c3c(N(C(=O)N[C@@](C)(CC(=O)O)C(=O)O)S(C)(=O)=O)nn(CC(F)(F)F)c23)c([C@H](Cc2cc(F)cc(F)c2)NC(=O)Cn2nc(C(F)(F)F)c3c2C(F)(F)[C@@H]2C[C@H]32)n1)S(C)(=O)=O` [Compound 65, (S)-2-(3-(4-chloro-7-(2-((S)-1-(2-((3bS,4aR)-5,5-difluoro-3-(trifluoromethyl)-3b,4,4a,5-tetrahydro-1H-cyclopropa[3,4]cyclopenta[1,2-c]pyrazol-1-yl)acetamido)-2-(3,5-difluorophenyl)ethyl)-6-(3-methyl-3-(methylsulfonyl)but-1-yn-1-yl)pyridin-3-yl)-1-(2,2,2-trifluoroethyl)-1H-indazol-3-yl)-3-(methylsulfonyl)ureido)-2-methylsuccinic acid], in that order: 1 μM and 52 μM.
For `CC(C)(C#Cc1ccc(-c2ccc(Cl)c3c(N(C(=O)C(=O)NCCP(=O)(O)O)S(C)(=O)=O)nn(CC(F)(F)F)c23)c([C@H](Cc2cc(F)cc(F)c2)NC(=O)Cn2nc(C(F)(F)F)c3c2C(F)(F)[C@@H]2C[C@H]32)n1)S(C)(=O)=O` [Compound 11, (2-(2-(N-(4-chloro-7-(2-((S)-1-(2-((3bS,4aR)-5,5-difluoro-3-(trifluoromethyl)-3b,4,4a,5-tetrahydro-1H-cyclopropa[3,4]cyclopenta[1,2-c]pyrazol-1-yl)acetamido)-2-(3,5-difluorophenyl)ethyl)-6-(3-methyl-3-(methylsulfonyl)but-1-yn-1-yl)pyridin-3-yl)-1-(2,2,2-trifluoroethyl)-1H-indazol-3-yl)methylsulfonamido)-2-oxoacetamido)ethyl)phosphonic acid] the same measures were 5 μM and 36 μM.
For `CC(C)(C#Cc1ccc(-c2ccc(Cl)c3c(N(COP(=O)(O)O)S(C)(=O)=O)nn(CC(F)(F)F)c23)c([C@H](Cc2cc(F)cc(F)c2)NC(=O)Cn2nc(C(F)(F)F)c3c2C(F)(F)[C@@H]2C[C@H]32)n1)S(C)(=O)=O` [Compound 23, (N-(4-chloro-7-(2-((S)-1-(2-((3bS,4aR)-5,5-difluoro-3-(trifluoromethyl)-3b,4,4a,5-tetrahydro-1H-cyclopropa[3,4]cyclopenta[1,2-c]pyrazol-1-yl)acetamido)-2-(3,5-difluorophenyl)ethyl)-6-(3-methyl-3-(methylsulfonyl)but-1-yn-1-yl)pyridin-3-yl)-1-(2,2,2-trifluoroethyl)-1H-indazol-3-yl)methylsulfonamido)methyl dihydrogen phosphate], in that order: 6 μM and 100 μM.
In the case of `CC(C)(C#Cc1ccc(-c2ccc(Cl)c3c(N(C(=O)OCCCOP(=O)(O)O)S(C)(=O)=O)nn(CC(F)(F)F)c23)c([C@H](Cc2cc(F)cc(F)c2)NC(=O)Cn2nc(C(F)(F)F)c3c2C(F)(F)[C@@H]2C[C@H]32)n1)S(C)(=O)=O` [Compound 98, 3-(phosphonooxy)propyl (4-chloro-7-(2-((S)-1-(2-((3bS,4aR)-5,5-difluoro-3-(trifluoromethyl)-3b,4,4a,5-tetrahydro-1H-cyclopropa[3,4]cyclopenta[1,2-c]pyrazol-1-yl)acetamido)-2-(3,5-difluorophenyl)ethyl)-6-(3-methyl-3-(methylsulfonyl)but-1-yn-1-yl)pyridin-3-yl)-1-(2,2,2-trifluoroethyl)-1H-indazol-3-yl)(methylsulfonyl)carbamate], the “pH 2 solubility” value came out at 1 μM and the “pH 7 solubility” value is reported as 100 μM.
For `COC(=O)C(=O)N(c1nn(CC(F)(F)F)c2c(-c3ccc(C#CC(C)(C)S(C)(=O)=O)nc3[C@H](Cc3cc(F)cc(F)c3)NC(=O)Cn3nc(C(F)(F)F)c4c3C(F)(F)[C@@H]3C[C@H]43)ccc(Cl)c12)S(C)(=O)=O` [Compound 15, methyl 2-(N-(4-chloro-7-(2-((S)-1-(2-((3bS,4aR)-5,5-difluoro-3-(trifluoromethyl)-3b,4,4a,5-tetrahydro-1H-cyclopropa[3,4]cyclopenta[1,2-c]pyrazol-1-yl)acetamido)-2-(3,5-difluorophenyl)ethyl)-6-(3-methyl-3-(methylsulfonyl)but-1-yn-1-yl)pyridin-3-yl)-1-(2,2,2-trifluoroethyl)-1H-indazol-3-yl)methylsulfonamido)-2-oxoacetate] the same measures were 1/1 μM and 1/1 μM.
With `C[C@@H](OP(=O)(O)O)[C@H](NC(=O)N(c1nn(CC(F)(F)F)c2c(-c3ccc(C#CC(C)(C)S(C)(=O)=O)nc3[C@H](Cc3cc(F)cc(F)c3)NC(=O)Cn3nc(C(F)(F)F)c4c3C(F)(F)[C@@H]3C[C@H]43)ccc(Cl)c12)S(C)(=O)=O)C(=O)O` [Compound 62, N-((4-chloro-7-(2-((S)-1-(2-((3bS,4aR)-5,5-difluoro-3-(trifluoromethyl)-3b,4,4a,5-tetrahydro-1H-cyclopropa[3,4]cyclopenta[1,2-c]pyrazol-1-yl)acetamido)-2-(3,5-difluorophenyl)ethyl)-6-(3-methyl-3-(methylsulfonyl)but-1-yn-1-yl)pyridin-3-yl)-1-(2,2,2-trifluoroethyl)-1H-indazol-3-yl)(methylsulfonyl)carbamoyl)-O-phosphono-L-threonine], the “pH 2 solubility” value is given as 4 μM and the “pH 7 solubility” value is recorded as 14 μM.
Turning to `CCOC(=O)C(=O)N(c1nn(CC(F)(F)F)c2c(-c3ccc(C#CC(C)(C)S(C)(=O)=O)nc3[C@H](Cc3cc(F)cc(F)c3)NC(=O)Cn3nc(C(F)(F)F)c4c3C(F)(F)[C@@H]3C[C@H]43)ccc(Cl)c12)S(C)(=O)=O` [Compound 14, ethyl 2-(N-(4-chloro-7-(2-((S)-1-(2-((3bS,4aR)-5,5-difluoro-3-(trifluoromethyl)-3b,4,4a,5-tetrahydro-1H-cyclopropa[3,4]cyclopenta[1,2-c]pyrazol-1-yl)acetamido)-2-(3,5-difluorophenyl)ethyl)-6-(3-methyl-3-(methylsulfonyl)but-1-yn-1-yl)pyridin-3-yl)-1-(2,2,2-trifluoroethyl)-1H-indazol-3-yl)methylsulfonamido)-2-oxoacetate], the “pH 2 solubility” value is given as 1/1 μM and the “pH 7 solubility” value was 1/1 μM.
